Values after ≈ are worked out from the molar mass of the structure shown. Structures can show the parent of a compound that is named as a salt. Where two headings read alike, the source gives them in different places.
What was measured:
[1] = tested on: L1210 mouse leukemia cells; experiment: formation of colonies of L1210 leukemia cells in soft agar; type: cell-based; settings: for IC50: Mus musculus
Procedure: The cytostatic activity of the compounds according to the invention was tested using L1210 mouse leukemia cells. This made use of the formation of colonies of L1210 leukemia cells in agar plates. This method is used to detect the effect of the test substances on the growth behavior of the cells over 1 hour or over several generations. With a cell cycle lasting 10-12 hours, this means that about 14 consecutive generations are observed in a test lasting 7 days. In this test, the substances having cytostatic activity according to the invention bring about a reduction in the number of colonies to be observed by comparison with an untreated control sample.
500 leukemia cells per plate were incubated with various concentrations of the test substance at 37° C. for 1 hour. These cells were then washed twice with McCoy5A medium and finally, after addition of 0.3% agar, poured into Petri dishes. Controls were incubated only with fresh medium. In some cases, in place of the incubation for one hour, various concentrations of test substances were mixed with the upper agar layer in order in this way to achieve continuous exposure of the cells throughout the incubation time. After the agar had solidified, the plates were incubated at 37° C. in an incubator for 7 days (5% by vol. CO2, 95% relative humidity). The number of colonies with a diameter of more than 60 μm which had formed was then counted. The results have been given as the number of colonies in treated agar plates as a percentage of the untreated control. The IC50 was determined, as a measure of the activity of the substance, from the dose-effect plot obtained in this way.

L1210 leukemia cells = experiment: cross-resistance in vitro, MTT assay on sensitive and adriamycin (doxorubicin)-resistant L1210 leukemia cells; type: cell-based, mouse; settings: for Degree of cross-resistance to adriamycin / Degree of resistance of the cell: 3d incubation; for Degree of resistance of the cell: IC50 resistant subline relative to IC50 sensitive line
Procedure: L1210, A 549 or HT 29 in the exponential phase of growth are incubated in a cell density of 5×10^3 cells/ml in RPMI 1640 in a 96-well microtiter plate for 72 hours with various concentrations of the test substance at 37° C., 5% CO2 and 95% relative humidity. Control experiments contain merely growth medium in place of the test substance. Each test substance and the control are determined in quadruplicate. After incubation for 65 hours, 50 μl of MTT solution (2.5 mg/ml in phosphate-buffered saline) are added. In the presence of live cells, MTT is reduced to a dark-red insoluble formazan dyestuff. This reaction is complete after 7 hours (L1210 cells) or after 24 hours (A 549, HT 29 cells), and the supernatant medium is carefully removed by aspiration. The insoluble dyestuff is dissolved by addition of 100 μl of DMSO, and the extinction of the resulting solution at a wavelength of 492 nm is then measured for each well in a Flow 340 CC multiscan photometer.
The ratio of the extinctions of treated and untreated cells yields a dose-effect plot from which the concentration which just kills 50% of the cells (IC50) can be read off. The coefficient of variation for repeat tests is less than 15%.
The cross-resistance between the particular test compound and doxorubicin is determined using the MTT assay (for method, see above) on sensitive and resistant L1210 leukemia cells.
The resistant cell line was established by incubation of a sensitive subline with stepwise increasing concentrations of the reference compound.
The IC50 of the test compound on the resistant subline relative to the IC50 of the sensitive subline yields the degree of resistance both for the test compound (DR(T)) and for the reference compound (DR(R)) in accordance with the formula [formula]
In addition, the degree of cross-resistance (DCR) for the test compound is calculated in accordance with the formula [formula]
In the case where the loss of activity of the test compound on the resistant line related to the sensitive line is greater than that of the reference compound, a degree of cross-resistance of more than 100% is possible.

[2] = approximative toxicity, intraperitoneal (LD50); settings: in vivo, ip
Text: *3xip,q3d: three intraperitoneal administrations with an interval of thre
1xip: one intraperitoneal administration

[3] = L1210, 168 h, read-out: Long-term incubation IC50, continuous exposure, 7 days, L1210 colony formation
[4] = L1210, read-out: 1 h Incubation IC50, 1 h incubation, then 7 days colony formation, L1210
[5] = one intraperitoneal administration, read-out: Approximative toxicity LD50, 1xip
[6] = 168 h, continuous exposure, 7 days, L1210 colony formation, read-out: Long-term incubation IC50
[7] = 1 h incubation, then 7 days colony formation, L1210, read-out: 1 h Incubation IC50
[8] = three intraperitoneal administrations with an interval of three days between each, read-out: Approximative toxicity LD50, 3xip, q3d
[9] = 1 h incubation, then 7 days colony formation, L1210
[10] = continuous exposure, 7 days, L1210 colony formation

Row | SMILES | IC50 [1, 3] [µg/mL] | IC50 [1, 4] [µg/mL] | LD50 [2, 5] [mg/kg] | IC50 [1, 6] [µg/mL] | IC50 [1, 7] [µg/mL] | also measured
1 | COc1cccc2c1C(=O)c1c(O)c3c(c(O)c1C2=O)C[C@@](O)(C(=O)CO)C[C@@H]3O[C@H]1C[C@H](N)[C@H](O)[C@H](C)O1 [Adriamycin, reference compound] | 0.02 (≈ 0.0368 µM) | 0.04 (≈ 0.0736 µM) |  |  |  | Degree of cross-resistance to adriamycin (L1210 leukemia cells): 100.0%; Degree of resistance of the cell (L1210 leukemia cells): 60-80; resistance of the resistant cell line for doxorubicin (L1210 leukemia cells; resistant L1210 line, 4320 min): 60-80 fold
2 | CC[C@@]1(O)C[C@H](O[C@H]2C[C@H](N(C)C)[C@H](OC(=O)c3ccccc3)[C@H](C)O2)c2c(O)c3c(c(O)c2[C@H]1O[C@H]1C[C@H](N(C)C)[C@H](OC(=O)c2ccccc2)[C@H](C)O1)C(=O)c1cccc(O)c1C3=O [Compound 1, 7,10-O-Bis-(4'-O-benzoyl-α-L-rhodosaminyl)-β-rhodomycinone] |  |  | > 100 |  |  | Degree of cross-resistance to adriamycin (L1210 leukemia cells): 0%; Degree of resistance of the cell (L1210 leukemia cells): 1.0
3 | CC[C@@]1(O)C[C@H](O[C@H]2C[C@H](N(C)C)[C@H](OC(=O)c3ccccc3)[C@H](C)O2)c2c(O)c3c(c(O)c2[C@H]1O[C@H]1C[C@H](N(C)C)[C@H](OC(=O)c2ccccc2)[C@H](C)O1)C(=O)c1cccc(O)c1C3=O [Compound 2, HCl adduct of compound 1] |  |  |  | 0.095 | > 1 | LD50 [2, 8]: > 85 mg/kg
4 | CC[C@@]1(O)C[C@H](O[C@H]2C[C@H](N(C)C)[C@H](OC(=O)c3ccc(OC)cc3)[C@H](C)O2)c2c(O)c3c(c(O)c2[C@H]1O[C@H]1C[C@H](N(C)C)[C@H](OC(=O)c2ccc(OC)cc2)[C@H](C)O1)C(=O)c1cccc(O)c1C3=O [Compound 3, 7,10-O-Bis-(4'-O-p-methoxybenzoyl-α-L-rhodosaminyl)-β-rhodomycinone] | 0.115 (≈ 0.119 µM) | > 1 | > 100 |  |  | 
5 | CC[C@@]1(O)C[C@H](O[C@H]2C[C@H](N(C)C)[C@H](OC(=O)c3ccc(OC)cc3)[C@H](C)O2)c2c(O)c3c(c(O)c2[C@H]1O[C@H]1C[C@H](N(C)C)[C@H](OC(=O)c2ccc(OC)cc2)[C@H](C)O1)C(=O)c1cccc(O)c1C3=O [Compound 4, HCl adduct of compound 3] |  |  |  |  |  | 1 h Incubation IC50 [1, 9]: > 1 µg/mL; Long-term incubation IC50 [1, 10]: 0.09 µg/mL
6 | CC[C@@]1(O)C[C@H](O[C@H]2C[C@H](N(C)C)[C@H](OC(=O)c3ccc(C#N)cc3)[C@H](C)O2)c2c(O)c3c(c(O)c2[C@H]1O[C@H]1C[C@H](N(C)C)[C@H](OC(=O)c2ccc(C#N)cc2)[C@H](C)O1)C(=O)c1cccc(O)c1C3=O [Compound 5, 7,10-O-Bis-(4'-O-p-cyanobenzoyl-α-L-rhodosaminyl)-β-rhodomycinon] | 0.105 (≈ 0.109 µM) | > 1 |  |  |  | 
7 | CC[C@@]1(O)C[C@H](O[C@H]2C[C@H](N(C)C)[C@H](OC(=O)c3ccc(C#N)cc3)[C@H](C)O2)c2c(O)c3c(c(O)c2[C@H]1O[C@H]1C[C@H](N(C)C)[C@H](OC(=O)c2ccc(C#N)cc2)[C@H](C)O1)C(=O)c1cccc(O)c1C3=O [Compound 6, HCl adduct of compound 5] |  |  |  |  |  | 1 h Incubation IC50 [1, 9]: > 1 µg/mL; Long-term incubation IC50 [1, 10]: 0.14 µg/mL
8 | CC[C@@]1(O)C[C@H](O[C@H]2C[C@H](N(C)C)[C@H](OC(=O)c3ccc([N+](=O)[O-])cc3)[C@H](C)O2)c2c(O)c3c(c(O)c2[C@H]1O[C@H]1C[C@H](N(C)C)[C@H](OC(=O)c2ccc([N+](=O)[O-])cc2)[C@H](C)O1)C(=O)c1cccc(O)c1C3=O [Compound 7, 7,10-O-Bis-(4'-O-p-nitrobenzoyl-α-L-rhodosaminyl)-β-rhodomycinone] | 2.1 (≈ 2.1 µM) | > 10 |  |  |  | 
9 | CC[C@@]1(O)C[C@H](O[C@H]2C[C@H](N(C)C)[C@H](OC(=O)c3ccc(Br)cc3)[C@H](C)O2)c2c(O)c3c(c(O)c2[C@H]1O[C@H]1C[C@H](N(C)C)[C@H](OC(=O)c2ccc(Br)cc2)[C@H](C)O1)C(=O)c1cccc(O)c1C3=O [Compound 8, 7,10-O-Bis-(4'-O-p-bromobenzoyl-α-L-rhodosaminyl)-β-rhodomycinone] | 0.3 (≈ 0.281 µM) | > 10 |  |  |  | 
10 | CC[C@@]1(O)C[C@H](O[C@H]2C[C@H](N(C)C)[C@H](OC(C)=O)[C@H](C)O2)c2c(O)c3c(c(O)c2[C@H]1O[C@H]1C[C@H](N(C)C)[C@H](OC(C)=O)[C@H](C)O1)C(=O)c1cccc(O)c1C3=O [Compound 9, 7,10-O-Bis-(4'-O-acetyl-α-L-rhodosaminyl)-β-rhodomycinone] |  |  | 3.4 to 6.5 | 0.026 (≈ 0.0331 µM) | 0.06 (≈ 0.0764 µM) | Degree of cross-resistance to adriamycin (L1210 leukemia cells): 6.0%; Degree of resistance of the cell (L1210 leukemia cells): 6.0
11 | CCC(=O)O[C@@H]1[C@H](C)O[C@@H](O[C@H]2C[C@](O)(CC)[C@H](O[C@H]3C[C@H](N(C)C)[C@H](OC(=O)CC)[C@H](C)O3)c3c(O)c4c(c(O)c32)C(=O)c2c(O)cccc2C4=O)C[C@@H]1N(C)C [Compound 10, 7,10-O-Bis-(4'-O-propionyl-α-L-rhodosaminyl)-β-rhodomycinone] |  |  |  | 0.12 (≈ 0.148 µM) | 0.25 (≈ 0.308 µM) | 
12 | CC[C@@]1(O)C[C@H](O[C@H]2C[C@H](N(C)C)[C@H](OC(=O)c3ccc(OC)cc3)[C@H](C)O2)c2c(O)c3c(c(O)c2[C@H]1O[C@H]1C[C@H](N(C)C)[C@H](O)[C@H](C)O1)C(=O)c1cccc(O)c1C3=O [Compound 12a, 7-O-[(4'-O-p-methoxybenzoyl)-α-L-rhodosaminyl]-10-O-α-L-rhodosaminyl-β-rhodomycinone] |  |  |  | 0.0085 (≈ 0.0102 µM) | 0.13 (≈ 0.156 µM) | LD50 [2, 8]: 10 to 15 mg/kg; Degree of cross-resistance to adriamycin (L1210 leukemia cells): 1.3%; Degree of resistance of the cell (L1210 leukemia cells): 0.75
13 | CC[C@@]1(O)C[C@H](O[C@H]2C[C@H](N(C)C)[C@H](OC(=O)c3ccccc3)[C@H](C)O2)c2c(O)c3c(c(O)c2[C@H]1O)C(=O)c1cccc(O)c1C3=O [Compound 17, 7-O-(4'-O-benzoyl-α-L-rhodosaminyl)-β-rhodomycinone] |  |  | 1 to 10 | 0.12 (≈ 0.185 µM) | 0.9 (≈ 1.39 µM) | 
14 | CC[C@@]1(O)C[C@H](O[C@H]2C[C@H](N(C)C)[C@H](OC(=O)c3ccc(OC)cc3)[C@H](C)O2)c2c(O)c3c(c(O)c2[C@H]1O)C(=O)c1cccc(O)c1C3=O [Compound 18, 7-O-(4'-O-p-Methoxybenzoyl-α-L-rhodosaminyl)-β-rhodomycinone] |  |  | 10 to 50 | 0.075 (≈ 0.111 µM) | 0.66 (≈ 0.974 µM) | 
15 | CC[C@@]1(O)C[C@H](O[C@H]2C[C@H](N(C)C)[C@H](OC(=O)c3ccc([N+](=O)[O-])cc3)[C@H](C)O2)c2c(O)c3c(c(O)c2[C@H]1O)C(=O)c1cccc(O)c1C3=O [Compound 19, 7-O-(4'-O-p-Nitrobenzoyl-α-L-rhodosaminyl)-β-rhodomycinone] | 0.03 (≈ 0.0433 µM) | 0.55 (≈ 0.794 µM) | > 50 |  |  | 
16 | CC[C@@]1(O)CCc2c(O)c3c(c(O)c2[C@H]1O[C@H]1C[C@H](N(C)C)[C@H](OC(=O)c2ccccc2)[C@H](C)O1)C(=O)c1cccc(O)c1C3=O [Compound 22, 10-O-(4'-O-Benzoyl-α-L-rhodosaminyl)-γ-rhodomycinone] |  |  | 1 to 10 | 0.48 (≈ 0.76 µM) | > 1 | 

Reference: patent US4914191A, “Anthracycline derivatives having cytostatic activity” (Behringwerke Aktiengesellschaft, priority 1987, dated 1990)
